Results taken from patent publication US6303612A, “Derivatives of hydroxyphenylsulfanylbenzoic and hydroxphenylsulfanylarylacetic acids” (Leciva, A.S., priority 1998, dated 2001).
Values after ≈ are worked out from the molar mass of the structure shown. Where two headings read alike, the source gives them in different places.

Assays:
[1] = test system: peroxidation of lipids from the hepatic cells membranes; assay: Antioxidant effect in vitro; format: biochemical; conditions: at 100 μg
Excerpt: Antioxidant Effect in vitro
The end-product, malonic dialdehyde, was transformed to coloured complex with thiobarbituric acid and determined spectrophotometrically. The antioxidant effect was expressed in % of peroxidation inhibition in the presence of the compound tested in comparison to a control sample.

[2] = test system: bronchospasm induced by LTD4; assay: Inhibition of bronchospasm induced by LTD4; format: in vivo; conditions: for Inhibition of bronchospasm induced by LTD4, % of inhibition: dose 100 mg/kg
Procedure: (§1) Inhibition of Allergic Bronchospasm Induced by […] (Compound 48/80 or Ovalbumin, Respectively)
(§2) The modified method of Kreutner W. et al (Krelutner W. et al.: Agents Actions 28, 253 (1989)) was used. Bronchoconstrictioin was induced by intravenous injection of 1 μg/kg LTD4 (3 mg/kg of compound […] or 0.35 mg/kg of ovalbumin, respectively). In the case of oval-bumin, the animals were senzitized by intraperitoneal injection of ovalbumin (100 mg/kg) 14 days before induction. The compounds tested were applied 5 min before the administration of the inductor; the vehiculum used for the application of compound tested was administered to the control group of animals. The tracheal pressure was determined in the intervals of 2, 4 and 10 minutes after induction. The effect was expressed in percentage inhibition of bronchospasm relative to the untreated control.

[3] = target: T1, LTD4 receptor (Cavia porcellus, UniProt Q2NNR5); assay: LTD4 receptor binding study; conditions: 3H-LTD4, guinea-pig lung membranes; for IC50: read-out: Inh. of LTD4 rec. binding, IC50; for inhibition at 100 µM: read-out: Inh. of LTD4 rec. binding, %
T1 construct: The membrane fraction was prepared from male guinea-pig lungs; from tissue; host or cells: male guinea-pig lung membranes
T1 sequence (Q2NNR5 1-340): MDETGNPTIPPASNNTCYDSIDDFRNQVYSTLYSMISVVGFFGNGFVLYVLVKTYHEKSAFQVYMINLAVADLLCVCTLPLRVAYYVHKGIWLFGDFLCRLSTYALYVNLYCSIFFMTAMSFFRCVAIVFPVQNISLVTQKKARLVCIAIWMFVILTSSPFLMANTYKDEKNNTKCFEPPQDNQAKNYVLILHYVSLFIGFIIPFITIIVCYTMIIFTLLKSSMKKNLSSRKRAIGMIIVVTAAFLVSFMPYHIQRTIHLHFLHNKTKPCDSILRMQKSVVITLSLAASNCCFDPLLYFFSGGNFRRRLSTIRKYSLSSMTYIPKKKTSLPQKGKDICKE
Summary of the method: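 Guinea-pig lung membranes (male animals) were incubated with 0.4 nM ³H-LTD4 for 60 min at 25 °C. Nonspecific binding was defined with 0.1 μM LTD4. Bound radioactivity was measured after filtration and washing.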

[4] = test system: Wistar-Han rats; assay: Inhibition of carrageenan edema; format: in vivo; conditions: dose 100 mg/kg; for inhibition in vivo at 100 mg/kg: Rattus norvegicus, read-out: CE: inhibition of carrageenan-induced edema, % of inh.
[5] = test system: LTB4 production in rat polymorphonuclear cells; assay: Ex vivo inhibition of LTB4 production (LTB4 biosynthesis); format: cell-based; conditions: for IC50: Rattus norvegicus, read-out: Inh. of LTB4 biosynth., IC50; for Inh. of LTB4 biosynth., %: at 30 μg (%/μg)
[6] = test system: rats; assay: Inhibition of carrageenan-induced pleuritis in rats; format: in vivo; conditions: dose 100 mg/kg, oral, values with mark n: p > 0.05; for inhibition in vivo at 100 mg/kg: Rattus norvegicus, po, 4 h
Summary of the method: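 Rats given test drug as single oral dose 1 h before intrapleural 0.5% carrageenan (1 ml) under light ether anaesthesia. Pleural exudate collected 4 h later; volume, cellularity and total cell count measured.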

[7] = target: LTB4 receptor (Cavia porcellus, UniProt H0VYV8); assay: LTB4 receptor binding study; conditions: 3H-LTB4, guinea-pig spleen membranes; for IC50: read-out: Inh. of LTB4 rec. binding, IC50; for inhibition at 20 µM: read-out: Inh. of LTB4 rec. binding, %
Chain of LTB4 receptor (H0VYV8 1-348): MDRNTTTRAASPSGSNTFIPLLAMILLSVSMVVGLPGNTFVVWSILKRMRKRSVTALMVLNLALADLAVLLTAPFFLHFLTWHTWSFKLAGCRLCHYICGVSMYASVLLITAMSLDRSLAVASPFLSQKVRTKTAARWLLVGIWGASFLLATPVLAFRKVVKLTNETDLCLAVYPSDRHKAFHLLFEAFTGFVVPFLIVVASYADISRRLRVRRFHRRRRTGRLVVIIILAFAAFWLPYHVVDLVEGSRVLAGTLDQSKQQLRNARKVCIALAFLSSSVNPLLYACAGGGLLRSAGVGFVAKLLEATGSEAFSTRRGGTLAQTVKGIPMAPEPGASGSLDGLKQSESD
Summary of the method: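 Male guinea-pig spleen membranes (2 mg) incubated with 0.3 nM ^3H-LTB4 for 30 min at 25 °C; nonspecific binding defined with 0.1 μM LTB4. Bound ligand collected by GF/C filtration, counted by liquid scintillation to give specific binding.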

[8] = test system: male mice; assay: Inhibition of arachidonic acid-induced ear inflammation in mice; format: in vivo; conditions: for inhibition in vivo at 200 mg/kg: Mus musculus, po, 1 h
Summary of the method: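 Compounds given orally 1 h before ear inflammation was induced in male mice with 20 µl arachidonic acid in acetone (100 mg/ml). Animals killed 1 h after induction. Ear hyperemia and ear-lobe weight assessed against the vehicle-treated contralateral ear.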

[9] = test system: bronchospasm induced by ovalbumin; assay: Inhibition of bronchospasm induced by ovalbumin; format: in vivo; conditions: for Inhibition of bronchospasm induced by ovalbumin, % of inhibition: dose 100 mg/kg
Procedure: as §1, §2

[10] = read-out: Experimental pleuritis, A: volume of exudate in pleural cavity, % of inh.
[11] = read-out: Experimental pleuritis, B: number of cells, % of inh.
[12] = read-out: Experimental pleuritis, C: cellularity in a volume unit, % of inh.
[13] = values with mark n: p > 0.05, read-out: Ear edema, D: edema of ear lobe, % of inh.
[14] = values with mark n: p > 0.05, read-out: Ear edema, E: hyperemia of ear lobe, % of inh.
[15] = dose 200 mg/kg, oral, values with mark n: p > 0.05, 200 mg/kg

Row | IC50 [3] [µM] | inhibition at 100 µM [3] [%] | IC50 [5] [µg/mL] | IC50 [7] [µM] | inhibition at 20 µM ([7]; at 20 μM) [%] | Compound | Antiox. effect, % of peroxidation inhibition [1] [%] | inhibition in vivo at 100 mg/kg ([2]; 4 min) [%] | inhibition in vivo at 100 mg/kg [4] [%] | Inh. of LTB4 biosynth., % [5] [%] | inhibition in vivo at 100 mg/kg [6, 10] [%] | inhibition in vivo at 100 mg/kg [6, 11] [%] | inhibition in vivo at 100 mg/kg [6, 12] [%] | inhibition in vivo at 200 mg/kg [8, 13] [%] | inhibition in vivo at 200 mg/kg [8, 14] [%] | inhibition in vivo at 100 mg/kg ([2]; 2 min) [%] | inhibition in vivo at 100 mg/kg ([9]; 2 min) [%] | inhibition in vivo at 100 mg/kg ([9]; 4 min) [%] | inhibition in vivo at 100 mg/kg ([9]; 10 min) [%] | inhibition in vivo at 100 mg/kg ([2]; 10 min) [%] | other results
1 | 0.024 | 100 |  | 91.6 |  | O=C(O)c1ccc(Sc2ccc(OCc3ccc4ccccc4n3)cc2)cc1 [Compound 16] | 13 | 70.8 | 25 | 98 | 26 | 33 | 11 | 27 | 3 | 69 | 41 | 45 | 63 |  | Inh. of LTB4 biosynth., IC50 [5]: 0.004 µg/mL; Inh. of LTB4 rec. binding, % ([7]; at 20 μM): 19%
2 | 0.63 | 100 | 0.08 (≈ 0.206 µM) | 44.2 | 38 | O=C(O)c1ccccc1Sc1cccc(OCc2ccc3ccccc3n2)c1 [Compound 17, 2-(3-(Quinoline-2-ylmethoxy)phenylsulfanyl)benzoic Acid] | 4 | 28 | 19 | 100 | 5 | 20 | 15 | 16 | 3 | 11 | 23 | 36 | 50 | 23 | 
3 | 1.7 | 100 | 0.13 (≈ 0.336 µM) | 70.3 | 34 | O=C(O)c1ccccc1Sc1ccc(OCc2ccc3ccccc3n2)cc1 [Compound 19, 2-(4-(Quinoline-2-ylmethoxy)phenylsulfanyl)benzoic Acid] | 10 | 33 | 13 | 100 | 17 | 23 | 6 | 20 | 5 | 14 | 21 | 27.3 |  | 43 | 
4 | 0.27 | 100 |  | 31.3 | 31 | O=C(O)c1ccccc1Sc1cccc(OCc2ccc3cc(Cl)ccc3n2)c1 [Compound 20, 2-(3-(6-Chloroquinoline-2-ylmethoxy)phenylsulfanyl)benzoic Acid] | 1 | 38 |  | 99 | 15 | 19 |  |  |  | 6 | 66 | 72 | 85 | 54 | CE: inhibition of carrageenan-induced edema, % of inh. [4]: 25%; Inh. of LTB4 biosynth., IC50 [5]: 0.035 µg/mL; Experimental pleuritis, C: cellularity in a volume unit, % of inh. ([6]; 100 mg/kg): 4%; Ear edema, D: edema of ear lobe, % of inh. [8, 15]: 12%; Ear edema, E: hyperemia of ear lobe, % of inh. [8, 15]: 0%
5 | 3.8 | 84 | 0.07 (≈ 0.166 µM) | 50 | 22 | O=C(O)c1ccc(Sc2ccc(OCc3ccc4cc(Cl)ccc4n3)cc2)cc1 [Compound 22, 4-(4-(6-Chloroquinoline-2-ylmethoxy)phenylsulfanyl)benzoic Acid] | 13 | 33 | 14 | 97 | 10 | 25 | 15 | 1 | 9 | 14 | 3 | 15 | 30 | 43 | 
6 |  |  |  |  |  | CON1CC/C(=C\c2cc(C(C)(C)C)c(O)c(C(C)(C)C)c2)C1=O [E 5110, reference compound] |  |  |  |  |  |  |  |  |  |  |  |  |  |  | Inhibition of bronchospasm induced by LTD4, % of inhibition ([2]; 2 min): 45%; Inhibition of bronchospasm induced by LTD4, % of inhibition ([2]; 4 min): 55%; Inhibition of bronchospasm induced by LTD4, % of inhibition ([2]; 10 min): 58%; Inhibition of bronchospasm induced by ovalbumin, % of inhibition ([9]; 2 min): 74%; Inhibition of bronchospasm induced by ovalbumin, % of inhibition ([9]; 4 min): 71%; Inhibition of bronchospasm induced by ovalbumin, % of inhibition ([9]; 10 min): 69%
7 |  | 7 | 0.17 (≈ 0.719 µM) |  | 28 | CC(c1cc2ccccc2s1)N(O)C(N)=O (stereo not drawn) [Zileuton, reference compound] |  | 54 | 46 | 100 | 36 | 49 | 20 | 9 | 13 | 10 | 23 | 28 | 50 | 75 | 

Row | Compound | IC50 [3] [µM] | inhibition at 100 µM [3] [%] | IC50 [5] [µg/mL] | IC50 [7] [µM] | inhibition at 20 µM ([7]; at 20 μM) [%] | Antiox. effect, % of peroxidation inhibition [1] [%] | inhibition in vivo at 100 mg/kg ([2]; 4 min) [%] | inhibition in vivo at 100 mg/kg [4] [%] | Inh. of LTB4 biosynth., % [5] [%] | inhibition in vivo at 100 mg/kg [6, 10] [%] | inhibition in vivo at 100 mg/kg [6, 11] [%] | inhibition in vivo at 100 mg/kg [6, 12] [%] | inhibition in vivo at 200 mg/kg [8, 13] [%] | inhibition in vivo at 200 mg/kg [8, 14] [%] | inhibition in vivo at 100 mg/kg ([2]; 2 min) [%] | inhibition in vivo at 100 mg/kg ([9]; 2 min) [%] | inhibition in vivo at 100 mg/kg ([9]; 4 min) [%] | inhibition in vivo at 100 mg/kg ([9]; 10 min) [%] | inhibition in vivo at 100 mg/kg ([2]; 10 min) [%] | other results
8 | CCCc1c(OCCCCOc2cccc(Sc3ccc(C(=O)O)cc3)c2)ccc(C(C)=O)c1O [Compound 8, 4-(3-(4-(4-Acetyl-3-hydroxy-2-propylphenoxy)butoxy)phenylsulfanyl)benzoic Acid] | 39.3 | 69 | 0.52 (≈ 1.05 µM) | 3.7 | 100 | 22 | 98 | 24 | 100 | 7 | 18 | 11 | 1 | 9 |  |  |  |  |  | 
